The assay deals with Keap1 (Homo sapiens, UniProt Q14145). The assay can be described thus: Fluorescence anisotropy assay. Type of assay: binding. The conditions noted are these: for Kd: Keap1-Nrf2 binding affinity, fluorescence anisotropy assay, duplicated experiment, average; for activity in Keap1-Nrf2 fluorescence anisotropy assay: at 10 μM.

Experimental findings from article PMC10331597 (Redox Biology, 2023) are described below.

Sequence of Keap1 (Q14145 whole entry): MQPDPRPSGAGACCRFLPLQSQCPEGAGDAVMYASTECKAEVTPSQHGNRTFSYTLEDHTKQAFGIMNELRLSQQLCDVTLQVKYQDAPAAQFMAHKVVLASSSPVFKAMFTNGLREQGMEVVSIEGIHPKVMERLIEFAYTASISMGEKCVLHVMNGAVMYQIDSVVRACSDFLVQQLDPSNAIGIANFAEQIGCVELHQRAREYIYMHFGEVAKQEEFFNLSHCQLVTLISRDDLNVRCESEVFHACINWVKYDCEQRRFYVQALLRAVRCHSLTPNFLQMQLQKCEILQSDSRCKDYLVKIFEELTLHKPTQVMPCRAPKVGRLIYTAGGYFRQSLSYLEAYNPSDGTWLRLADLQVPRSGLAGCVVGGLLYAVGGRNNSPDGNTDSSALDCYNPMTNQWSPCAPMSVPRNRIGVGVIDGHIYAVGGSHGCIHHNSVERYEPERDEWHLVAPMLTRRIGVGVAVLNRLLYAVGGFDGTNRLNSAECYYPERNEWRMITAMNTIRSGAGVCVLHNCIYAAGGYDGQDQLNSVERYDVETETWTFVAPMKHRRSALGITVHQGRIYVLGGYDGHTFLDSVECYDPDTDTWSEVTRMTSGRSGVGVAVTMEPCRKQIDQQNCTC

Turning to `COc1ccc(S(=O)(=O)N(CC(N)=O)c2ccc(N(CC(N)=O)S(=O)(=O)c3cnn(C)c3)c3ccccc23)cc1` [Compound A9, 2-((N-(4-((N-(2-amino-2-oxoethyl)-1-methyl-1H-pyrazole)-4-sulfonamido)naphthalen-1-yl)-4-methoxyphenyl)sulfonamido)acetamide], binding was put at a Kd of 1140 nM. Same read-out and setting: the result for `COc1ccc(S(=O)(=O)N(CC(N)=O)c2ccc(N(CC(N)=O)S(=O)(=O)c3cccs3)c3ccccc23)cc1` [Compound A4, 2-(N-(4-((N-(2-amino-2-oxoethyl)-4-methoxyphenyl)sulfonamido)naphthalen-1-yl)thiophene-2-sulfonamido)acetamide] reads 1110 nM. The compound `COc1ccc(S(=O)(=O)N(CC(N)=O)c2ccc(N(CC(N)=O)S(=O)(=O)c3ccc4c(c3)CCO4)c3ccccc23)cc1` [Compound A11, 2-((N-(4-((N-(2-amino-2-oxoethyl)-2,3-dihydrobenzofuran)-5-sulfonamido)naphthalen-1-yl)-4-methoxyphenyl)sulfonamido)acetamide] came in with an equilibrium dissociation constant (Kd) of 1280 nM.

Compound `COc1ccc(S(=O)(=O)N(CC(N)=O)c2ccc(N(CC(N)=O)S(=O)(=O)c3c(C)c(C)c4c(c3C)CC(C)(C)O4)c3ccccc23)cc1` [Compound A10, 2-((N-(4-((N-(2-amino-2-oxoethyl)-2,2,4,6,7-pentamethyl-2,3-dihydrobenzofuran)-5-sulfonamido)naphthalen-1-yl)-4-methoxyphenyl)sulfonamido)acetamide] yielded a Kd of 3270 nM. With `COc1ccc(S(=O)(=O)N(CC(N)=O)c2ccc(N(CC(N)=O)S(=O)(=O)c3cccc4ccccc34)c3ccccc23)cc1` [Compound A1, 2-(N-(4-((N-(2-amino-2-oxoethyl)-4-methoxyphenyl)sulfonamido)naphthalen-1-yl)naphthalene-1-sulfonamido)acetamide], the Kd is over 10000 nM and the “activity in Keap1-Nrf2 fluorescence anisotropy assay” value (“activity” below) is “did not show apparent activity”. For `COc1ccc(S(=O)(=O)N(CC(N)=O)c2ccc(N(CC(N)=O)S(=O)(=O)c3sc(N(CC(N)=O)C(C)=O)nc3C)c3ccccc23)cc1` [Compound A7, N-(2-amino-2-oxoethyl)-N-(5-(N-(2-amino-2-oxoethyl)-N-(4-((N-(2-amino-2-oxoethyl)-4-methoxy-phenyl)sulfonamido)naphthalen-1-yl)sulfamoyl)-4-methylthiazol-2-yl)acetamide], the affinity, expressed as Kd, was 1430 nM. Same read-out and setting: the result for `COc1ccc(S(=O)(=O)N(CC(N)=O)c2ccc(N(CC(N)=O)S(=O)(=O)c3ccc4ccccc4c3)c3ccccc23)cc1` [Compound A2, 2-(N-(4-((N-(2-amino-2-oxoethyl)-4-methoxyphenyl)sulfonamido)naphthalen-1-yl)naphthalene-2-sulfonamido)acetamide] reads 1300 nM.

Take `COc1ccc(S(=O)(=O)N(CC(N)=O)c2ccc(N(CC(N)=O)S(=O)(=O)c3ccc(-c4ccccc4)cc3)c3ccccc23)cc1` [Compound A3, 2-(N-(4-((N-(2-amino-2-oxoethyl)-4-methoxyphenyl)sulfonamido)naphthalen-1-yl)-[1,1'-biphenyl]-4-sulfonamido)acetamide]: the Kd is over 10000 nM and the “activity” value is “did not show apparent activity”. Regarding `COc1ccc(S(=O)(=O)N(CC(N)=O)c2ccc(N(CC(N)=O)S(=O)(=O)c3cn(C)cn3)c3ccccc23)cc1` [Compound A8, 2-((N-(4-((N-(2-amino-2-oxoethyl)-1-methyl-1H-imidazole)-4-sulfonamido)naphthalen-1-yl)-4-methoxyphenyl)sulfonamido)acetamide], the affinity, expressed as Kd, was 1150 nM. As to `COc1ccc(S(=O)(=O)N(CC(N)=O)c2ccc(N(CC(N)=O)S(=O)(=O)c3sc4ccc(Cl)cc4c3C)c3ccccc23)cc1` [Compound A13, 2-((N-(4-((N-(2-amino-2-oxoethyl)-4-methoxyphenyl)sulfonamido)naphthalen-1-yl)-5-chloro-3-methylbenzo[b]thiophene)-2-sulfonamido)acetamide], the Kd is over 10000 nM and the “activity” value was “did not show apparent activity”.

For the compound `COc1ccc(S(=O)(=O)N(CC(N)=O)c2ccc(N(CC(N)=O)S(=O)(=O)c3ccc(Cl)nc3)c3ccccc23)cc1` [Compound A5, 2-((N-(4-((N-(2-amino-2-oxoethyl)-4-methoxyphenyl)sulfonamido)naphthalen-1-yl)-6-chloropyridine)-3-sulfonamido)acetamide], the Kd was over 10000 nM and the “activity” value is recorded as “did not show apparent activity”. Turning to `COc1ccc(S(=O)(=O)N(CC(N)=O)c2ccc(N(CC(N)=O)S(=O)(=O)c3c(C)noc3C)c3ccccc23)cc1` [Compound A12, 2-((N-(4-((N-(2-amino-2-oxoethyl)-3,5-dimethylisoxazole)-4-sulfonamido)naphthalen-1-yl)-4-methoxyphenyl)sulfonamido)acetamide], the Kd was over 10000 nM and the “activity” value is recorded as “did not show apparent activity”.

Take `COc1ccc(S(=O)(=O)N(CC(N)=O)c2ccc(N(CC(N)=O)S(=O)(=O)N3CCOCC3)c3ccccc23)cc1` [Compound A6, 2-(N-(4-((N-(2-amino-2-oxoethyl)-4-methoxyphenyl)sulfonamido)naphthalen-1-yl)morpholine-4-sulfonamido)acetamide]: the Kd turned out to be 2070 nM.
